Data set [1] concerns epileptiform activity (burst discharges) in hippocampal slices induced by pentylenetetrazol. The experiment in a line: In vitro seizure model, pentylenetetrazol-induced epileptiform activity in hippocampal slices. Format: cell-based, rat. Particulars: 1 mM; pentylenetetrazol 2 mM, K+ 6 mM. On the procedure:
Male Sprague-Dawley rats (postnatal Days 19–30) were sacrificed using an overdose of isoflurane or pentobarbitone (500 mg/kg). After decapitation the brain was rapidly removed, the hippocampus or entorhinal cortex-hippocampus slices was dissected from the brain and […] thick transverse slices were prepared on a VT1200S vibratome (Leica) or Vibratome (Vibratome® 1500 sectioning system, Intracell). The slicing was performed in ice-cold sucrose-based solution containing (in mM): 75 sucrose, 87 NaCl, 22 glucose, 2.5 KCl, 7 MgCl2, 1.25 NaH2PO4, 0.5 CaCl2 and 25 NaHCO3, pH 7.4, 315–330 mOsm equilibrated with 95% O2 plus 5% CO2. The slices were then stored in a continuously oxygenated humidified interface holding chamber containing oxygenated artificial CSF (in mM): 120 NaCl, 22 glucose, 2.5 KCl, 1.3 MgSO4, 1 NaH2PO4, 25 NaHCO3 and 2.5 CaCl2, pH 7.4 296 mOsm, where they recovered for at least 1 h before use.
During the experiment, slices were transferred from the interface chamber into a submerged recording chamber, designed to optimize wash-in and wash-out of drugs, and continuously perfused using gravity feed at 3–6 ml/min with prewarmed (36°C) oxygenated artificial CSF (95% O2, 5% CO2). Field potentials were recorded with a glass microelectrode (1–2 MΩ) filled with artificial CSF solution placed in stratum radiatum of CA1 and were filtered at 1 kHz and digitized at 2 kHz (using an npi EXT-02F extracellular amplifier recorded with WinEDR software). In the pentylenetetrazol model, the epileptiform (paroxysmal) activity was induced by application of pentylenetetrazol (2 mM) to the perfusate and [K^+] was increased (to 6 mM); in low-Mg^2+ model, the epileptiform activity was elicited by using Mg^2+-free artificial CSF. Once the frequency of the paroxysmal activity was stable for at least 10 min, compounds were applied to the perfusate for the following 40 min, and washed out for a remaining 20 min. The anticonvulsant effects were evaluated by measuring the change in the frequency of the discharges at minute intervals. The discharge frequency was then averaged every 5 min during the experiment and normalized to baseline. The compounds applied in this study included: 1% dimethyl sulphoxide (DMSO), acetone (10 mM, Sigma), (±)-sodium 3-hydroxybutyrate (BHB) (10 mM, Sigma), and decanoic acid (1 mM, Alfa Aesar Pty). Acetone and decanoic acids were prepared as 1000× stocks in DMSO, and BHB was prepared as 100× stock. Stocks were dissolved in artificial CSF to achieve their final concentrations during experiments, and where applicable, experiments included constant levels of DMSO.

On the set-up of data set [2]: method as in Wlaz et al., 2012. Particulars: mice, gastric gavage 30 mmol/kg; ref Wlaz et al., 2012; cited from earlier work.

For the molecule `CCCCCCCCCC(=O)O` [decanoic acid], the “effect on epileptiform activity” value in data set [1] is given as “completely blocked”. Further, in data set [2], the brain concentration result is reported as “up to 240 µM” and the “brain concentration as share of serum levels” value is listed as 60–80%.

Source of the values: paper PMC4805082, “Seizure control by decanoic acid through direct AMPA receptor inhibition” (Brain, 2015).
